From ChEMBL document CHEMBL1152880, “Synthesis and SAR studies of trisubstituted purinones as potent and selective adenosine A2A receptor antagonists” (Bioorg Med Chem Lett, 2009) come the findings set out here.

The species entered for one assay is Homo sapiens. Nature of the assay: Selectivity ratio of Ki for human adenosine A1 receptor to Ki for human recombinant adenosine A2A receptor.
The next assay deals with T1, Adenosine receptor A1 (Homo sapiens, UniProt P30542).
T1 sequence (P30542 whole entry): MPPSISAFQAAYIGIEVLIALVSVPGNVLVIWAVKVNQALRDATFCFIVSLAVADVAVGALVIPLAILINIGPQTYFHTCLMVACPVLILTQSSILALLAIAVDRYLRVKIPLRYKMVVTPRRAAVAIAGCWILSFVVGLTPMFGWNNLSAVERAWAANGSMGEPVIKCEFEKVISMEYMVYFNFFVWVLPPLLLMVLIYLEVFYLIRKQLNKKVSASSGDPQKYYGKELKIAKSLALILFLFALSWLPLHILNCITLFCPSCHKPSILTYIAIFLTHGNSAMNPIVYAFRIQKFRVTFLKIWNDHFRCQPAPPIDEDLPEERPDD
Description: Displacement of [3H]DPCPX from human recombinant adenosine A1 receptor expressed in CHOK1 cells. Type of assay: cell-based, CHO-K1.

In another assay the target is Adenosine receptor A2a (Homo sapiens, UniProt P29274). Description: Displacement of [3H]SCH-58261 from human recombinant adenosine A2A receptor expressed in HEK293 cells. The format is cell-based.
Adenosine receptor A2a, sequence (P29274 whole entry): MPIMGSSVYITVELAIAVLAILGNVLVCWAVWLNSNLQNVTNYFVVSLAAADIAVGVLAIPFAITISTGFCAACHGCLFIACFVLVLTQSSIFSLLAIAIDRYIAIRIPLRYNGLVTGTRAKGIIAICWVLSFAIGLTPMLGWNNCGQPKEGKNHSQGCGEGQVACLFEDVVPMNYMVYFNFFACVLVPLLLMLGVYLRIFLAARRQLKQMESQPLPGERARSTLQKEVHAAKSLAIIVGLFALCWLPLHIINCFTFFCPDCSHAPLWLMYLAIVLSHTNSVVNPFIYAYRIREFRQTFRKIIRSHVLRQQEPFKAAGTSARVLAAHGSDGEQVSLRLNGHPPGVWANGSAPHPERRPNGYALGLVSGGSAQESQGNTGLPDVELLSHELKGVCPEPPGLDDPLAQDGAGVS

In the case of `COc1ccccc1Cn1c(=O)n(-c2ccccc2)c2nc(NC3CC3)ncc21`, in the assay filed under Homo sapiens, the Ratio Ki was 1.1. The Ki on Adenosine receptor A1 turned out to be 447 nM; at Adenosine receptor A2a, 409 nM.
As for `COc1cccc(Cn2c(=O)n(Cc3ccccc3OC)c3cnc(NC4CC4)nc32)c1`, the Ki at Adenosine receptor A1 was more than 10000 nM; at Adenosine receptor A2a, 9210 nM.
Regarding `COc1cccc(-n2c(=O)n(Cc3c(F)cccc3F)c3cnc(NCCN4CCOCC4)nc32)c1`, the Ratio Ki in the assay filed under Homo sapiens came to 33. Moreover, the Ki on Adenosine receptor A1 worked out at 8600 nM; on Adenosine receptor A2a, 259 nM.
For `COc1cccc(-n2c(=O)n(C(C)c3ccccc3)c3cnc(NC4CC4)nc32)c1` (centres undefined), the Ki on Adenosine receptor A2a amounted to 359 nM.
Take `COc1cc(OC)cc(-n2c(=O)n(Cc3ccccc3OC)c3cnc(NC4CC4)nc32)c1`: the Ratio Ki in the assay listed under Homo sapiens is 61. Further, the values for the inhibition constant (Ki) on Adenosine receptor A1 and on Adenosine receptor A2a were 4640 nM and 76 nM, respectively.
Turning to `COc1ccccc1Cn1c(=O)n(-c2cccc(C#N)c2)c2nc(NC3CC3)ncc21`, the Ratio Ki in the assay filed under Homo sapiens stood at 1.3. For the same compound, the Ki at Adenosine receptor A1 amounted to 3240 nM; at Adenosine receptor A2a it was 2590 nM.
On to `COc1ccccc1Cn1c(=O)n(-c2ccccc2OC)c2nc(NC3CC3)ncc21`, for which, on Adenosine receptor A2a, the Ki is 1560 nM.
Regarding `COc1cccc(-n2c(=O)n(-c3ccccc3OC)c3cnc(NC4CC4)nc32)c1`, the Ratio Ki in the assay filed under Homo sapiens worked out at 0.2. Further, the Ki at Adenosine receptor A1 worked out at 1260 nM; at Adenosine receptor A2a, 5120 nM.
As to `COc1cccc(-n2c(=O)n(Cc3c(F)cccc3F)c3cnc(NCCc4cccs4)nc32)c1`, the Ratio Ki in the assay listed under Homo sapiens came out at 220. Also, the Ki on Adenosine receptor A1 worked out at 1970 nM; at Adenosine receptor A2a, 9 nM.
Regarding `COc1cccc(-n2c(=O)n(Cc3c(F)cccc3F)c3cnc(NC4CC4)nc32)c1`, the Ratio Ki in the assay listed under Homo sapiens was found to be 59. The Ki at Adenosine receptor A1 was determined as 236 nM; on Adenosine receptor A2a it was 4 nM.
As to `COc1cccc(-n2c(=O)n(Cc3c(F)cccc3F)c3cnc(NC(C)C)nc32)c1`, the Ratio Ki in the assay listed under Homo sapiens was determined as 10. The values for the Ki on Adenosine receptor A1 and on Adenosine receptor A2a were 616 nM and 60 nM, respectively.
As to `COc1cccc(-n2c(=O)n(Cc3c(F)cccc3F)c3cnc(Nc4cccnc4)nc32)c1`, the Ratio Ki in the assay listed under Homo sapiens amounted to 17. The Ki on Adenosine receptor A1 came to 1830 nM; at Adenosine receptor A2a it was 111 nM.
Consider `COc1cccc(-n2c(=O)n(Cc3c(F)cccc3F)c3cnc(NCc4ccncc4)nc32)c1`, for which the Ratio Ki in the assay filed under Homo sapiens came out at 24. Also, the Ki on Adenosine receptor A1 was 1190 nM; on Adenosine receptor A2a, 50 nM.
Taken in the same sequence, the figures for `COc1ccccc1Cn1c(=O)n(-c2cccc(F)c2)c2nc(NC3CC3)ncc21` were 7, 599 nM and 89 nM.
Consider `COc1cccc(-n2c(=O)n(Cc3c(F)cccc3F)c3cnc(NC4CCCC4)nc32)c1`, for which, in the assay filed under Homo sapiens, the Ratio Ki stood at 5. For the same compound, the Ki at Adenosine receptor A1 worked out at 1060 nM; on Adenosine receptor A2a, 213 nM.
In the case of `COc1cccc(-n2c(=O)n(Cc3c(F)cccc3F)c3cnc(NCCc4ccccn4)nc32)c1`, the Ratio Ki in the assay listed under Homo sapiens turned out to be 23. The Ki on Adenosine receptor A1 was found to be 1800 nM; at Adenosine receptor A2a, 78 nM.
With `CCNc1ncc2c(n1)n(-c1cccc(OC)c1)c(=O)n2Cc1c(F)cccc1F`, the Ratio Ki in the assay listed under Homo sapiens turned out to be 34. Further, the figures for the Ki on Adenosine receptor A1 and on Adenosine receptor A2a were 1050 nM and 31 nM, respectively.
On to `COc1cccc(-n2c(=O)n(Cc3ccccc3Cl)c3cnc(NC4CC4)nc32)c1`, for which, in the assay listed under Homo sapiens, the Ratio Ki is 33. Also, the figures for the Ki at Adenosine receptor A1 and at Adenosine receptor A2a were 2850 nM and 86 nM, respectively.
Consider `COc1cccc(-n2c(=O)n(Cc3c(F)cccc3F)c3cnc(NCc4ccccn4)nc32)c1`, for which the Ratio Ki in the assay filed under Homo sapiens is 100. Moreover, the Ki on Adenosine receptor A1 came to 1210 nM; at Adenosine receptor A2a, 12 nM.
For the compound `COc1cccc(-n2c(=O)n(Cc3c(F)cccc3F)c3cnc(NCCN(C)C)nc32)c1`, in the assay listed under Homo sapiens, the Ratio Ki stood at 38. The values for the Ki at Adenosine receptor A1 and on Adenosine receptor A2a were 10000 nM and 261 nM, respectively.
In the case of `CNc1ncc2c(n1)n(-c1cccc(OC)c1)c(=O)n2Cc1c(F)cccc1F`, the Ratio Ki in the assay filed under Homo sapiens was determined as 49. In addition, the Ki at Adenosine receptor A1 turned out to be 1110 nM; on Adenosine receptor A2a, 23 nM.
In the case of `COc1cccc(-n2c(=O)n(Cc3c(F)cccc3F)c3cnc(NCC4CC4)nc32)c1`, the Ratio Ki in the assay filed under Homo sapiens turned out to be 2. Besides, the Ki at Adenosine receptor A1 was 1070 nM; on Adenosine receptor A2a, 499 nM.
`COc1cccc(-n2c(=O)n(Cc3ccccc3F)c3cnc(NC4CC4)nc32)c1`: in the assay filed under Homo sapiens, the Ratio Ki was 6. Further, the Ki on Adenosine receptor A1 worked out at 201 nM; on Adenosine receptor A2a it was 33 nM.
As to `COc1cccc(-n2c(=O)n(Cc3c(F)cccc3F)c3cnc(NCc4ccccc4)nc32)c1`, the Ratio Ki in the assay listed under Homo sapiens came to 42. The Ki stood at 2970 nM at Adenosine receptor A1 and 72 nM on Adenosine receptor A2a.
As to `COc1cccc(-n2c(=O)n(Cc3c(F)cccc3F)c3cnc(NCc4cccnc4)nc32)c1`, the Ratio Ki in the assay filed under Homo sapiens turned out to be 20. Moreover, the figures for the Ki on Adenosine receptor A1 and at Adenosine receptor A2a were 1300 nM and 66 nM, respectively.
The like results for `COc1ccccc1Cn1c(=O)n(-c2cccc(OC(F)(F)F)c2)c2nc(NC3CC3)ncc21` were, in that order, 25, 5140 nM and 206 nM.
As for `COc1cccc(-n2c(=O)n(Cc3ccccc3OC)c3cnc(NC4CC4)nc32)c1`, the Ratio Ki in the assay listed under Homo sapiens was 17. Besides, the results for the Ki at Adenosine receptor A1 and at Adenosine receptor A2a were 402 nM and 24 nM, respectively.
Regarding `COCCNc1ncc2c(n1)n(-c1cccc(OC)c1)c(=O)n2Cc1c(F)cccc1F`, in the assay listed under Homo sapiens, the Ratio Ki came out at 14. Besides, the Ki at Adenosine receptor A1 came out at 1470 nM; on Adenosine receptor A2a it was 106 nM.
With `COc1ccccc1Cn1c(=O)n(-c2cccc(C)c2)c2nc(NC3CC3)ncc21`, the Ratio Ki in the assay filed under Homo sapiens came to 6. The Ki on Adenosine receptor A1 is 1850 nM; on Adenosine receptor A2a, 316 nM.
On to `COc1cccc(-n2c(=O)n(Cc3ccccc3)c3cnc(NC4CC4)nc32)c1`, for which the Ratio Ki in the assay filed under Homo sapiens came out at 10. Further, the inhibition constant (Ki) on Adenosine receptor A1 stood at 564 nM; on Adenosine receptor A2a, 54 nM.
The like results for `COc1cccc(-n2c(=O)n(Cc3c(F)cccc3OC)c3cnc(NC4CC4)nc32)c1` were, in that order, 55, 330 nM and 6 nM.
Take `COc1cccc(-n2c(=O)n(C)c3cnc(NC4CC4)nc32)c1`: the Ki on Adenosine receptor A2a was found to be 2640 nM.
